Experimental data taken from ChEMBL document CHEMBL5725542, “Plasminogen activator inhibitor-1 inhibitors and methods of use thereof” (2017).

Tests used:
[1] = Fluorometric PAI-1/uPA IC50 Plate Assay: To determine the efficacy of various synthesized compounds as PAI-1 inhibitors, a fluorometric plate assay was carried out to measure the half maximal inhibitory concentration (IC50) of these compounds on recombinant active human PAI-1 in vitro. An IC50 is a measure of the effectiveness of a compound in inhibiting biological or biochemical function. Stated another way, IC50 represents the concentration of a drug that is required for 50% inhibition in vitro. The IC50 of various compounds was measured using a fluorometric plate assay. PAI-1 inhibitor compounds were dissolved in DMSO to a final concentration of (10-50 mM), depending upon solubility. Compounds were then diluted in physiologic buffer (40 mM HEPES, 100 mM NaCl, 0.05% Tween-20, pH7.4) containing 10% DMSO and a dilution series (from 0 to 1000 uM depending on solubility) was prepared. 80 μL of compound was added per well to a 96-well black, opaque microplate in duplicate. 10 μL of 20 nM Recombinant active human PAI-1 (Molecular Innovations) in physiologic buffer (40 mM HEPES, 100 mM NaCl, 0.05% Tween-20, 10% DMSO, pH 7.4), or […] physiologic buffer with 10% human plasma, was added and the mixture was agitated for 15 minutes at room temperature. 10 μL of 25 nM uPA (Rheotromb®) was added to each reaction well and the plate was agitated for an additional 30 minutes at room temperature. Tripeptide aminomethylcoumarin Gly-Gly-Arg-AMC (Calbiochem) fluorogenic substrate (100 μL of 100 μM) was then added and residual uPA activity was determined based upon cleavage of this substrate. The rate of AMC release by uPA (fluorescence) was measured at an excitation wavelength of 370 nm and an emission wavelength of 440 nm. Controls included PAI-1 and uPA in the absence of compound and uPA alone. Percent PAI-1 inhibition was calculated using the following formula: [(uPA alone-uPA/PAI-1+ compound)/(uPA alone-PAI-1/uPA)]*100%. The IC50 was calculated using Graphit (IC50 0-100%).
[2] = (§1) Fluorometric PAI-1/uPA IC50 Plate Assay (1.5% BSA buffer): To determine the efficacy of various synthesized compounds as PAI-1 inhibitors, a fluorometric plate assay was carried out to measure the half maximal inhibitory concentration (IC50) of these compounds on recombinant active human PAI-1 in vitro. An IC50 is a measure of the effectiveness of a compound in inhibiting biological or biochemical function. Stated another way, IC50 represents the concentration of a drug that is required for 50% inhibition in vitro. The IC50 of various compounds was measured using a fluorometric plate assay. PAI-1 inhibitor compounds were dissolved in DMSO to a final concentration of (10-50 mM), depending upon solubility. Compounds were then diluted in physiologic buffer (40 mM HEPES, 100 mM NaCl, 0.05% Tween-20, pH7.4) containing 10% DMSO and a dilution series (from 0 to 1000 uM depending on solubility) was prepared. 80 μL of compound was added per well to a 96-well black, opaque microplate in duplicate. 10 μL of 20 nM Recombinant active human PAI-1 (Molecular Innovations) in physiologic buffer (40 mM HEPES, 100 mM NaCl, 0.05% Tween-20, 10% DMSO, pH 7.4), or […] physiologic buffer with 10% human plasma, was added and the mixture was agitated for 15 minutes at room temperature. […]
[3] = as §1, with “(10% plasma” for “(1.5% BSA”

IC50 [1] [µM] | IC50 [2] [µM] | IC50 [3] [µM] | Structure (SMILES)
5470 | 892 | 851 | [C-]#[N+]c1ccc(CNC(=O)C(=O)NN)cc1
2560 | – | – | NNC(=O)C(=O)NCCc1ccc(CO)c(CO)c1
2280 | – | – | COc1cc(CO)ccc1CNC(=O)C(=O)NN
4320 | – | – | COc1cc(CO)cc(CNC(=O)C(=O)NN)c1
